Assay results published in patent US20240247015A1, “PHOSPHORUS DERIVATIVES AS NOVEL SOS1 INHIBITORS” (BAYER AKTIENGESELLSCHAFT, priority 2021, published 2024).

target: interaction of human SOS1 (SOS1) with human K-RasG12C (Homo sapiens (Human), UniProt Q07889); test: Biochemical assay: hK-RasG12C interaction assay with hSOS1 (HTRF); type: binding; conditions: GST-hK-RasG12C with His-hSOS1, 60 min incubation at 20° C., mean, read-out: K-RasG12C - SOS interaction assay IC50 (mean)
Description: Biochemical Assay: hK-RasG12C Interaction Assay with hSOS1 This assay quantifies the equilibrium interaction of human SOS1 (SOS1) with human K-Ras^G12^C (K-RasG12C). Detection of the interaction is achieved by measuring homogenous time-resolved fluorescence resonance energy transfer (HTRF) from antiGST-Europium (FRET donor) bound to GST-K-RasG12C to anti-6His-XL665 bound to His-tagged hSOS1 (FRET-acceptor). The assay buffer containes 5 mM HEPES pH 7.4 (Applichem), 150 mM NaCl (Sigma), […] (Promega), 1 mM DTT (Thermofisher), 0.05% BSA Fraction V, pH 7.0, (ICN Biomedicals), 0.0025% (v/v) Igepal (Sigma) and 100 mM KF (FLUKA). The expression and purification of N-terminally GST-tagged human K-RasG12C (termed GST-hK-RasG12C) and N-terminally His-tagged human SOS1 (termed His10-hSOS1) is described in WO 2019/201848, page 220 line 12-34 and page 222, line 13-25 (expression) and page 222, line 26 to page 223, line 17 (purification). Concentrations of protein batches used are optimized to be within the linear range of the HTRF signal. A Ras working solution is prepared in assay buffer containing typically 10 nM GST-hK-RasG12C and 2 nM antiGST-Eu(K) (Cisbio, France). A SOS1 working solution is prepared in assay buffer containing typically 20 nM His-hSOS1 and 10 nM anti-6His-XL665 (Cisbio, France). An inhibitor control solution is prepared in assay buffer containing nM anti-6His-XL665 without SOS1. Fifty nl of a 100-fold concentrated solution of the test compound in DMSO are transferred into a black microtiter test plate (384 or 1536, Greiner Bio-One, Germany). For this, either a Hummingbird liquid handler (Digilab, MA, USA) or an Echo acoustic system (Labcyte, CA, USA) is used. All steps of the assay are performed at 20° C. A volume of 2.5 μl of the Ras working solution is added to all wells of the test plate using a Multidrop dispenser (Thermo Labsystems). After 2 min preincubation, 2.5 μl of the SOS1 working solution are added to all wells except for those wells at the side of the test plate that are subsequently filled with 2.5 μl of the inhibitor control solution. After 60 min incubation the fluorescence is measured with a Pherastar (BMG, Germany) using the HTRF module (excitation 337 nm, emission 1: 620 nm, emission 2: 665 nm). The ratiometric data (emission 2 divided by emission 1) are normalized using the controls (DMSO=0% inhibition, inhibition control wells with inhibitor control solution=100% inhibition). Compounds are tested in duplicates at up to 11 concentrations (for 20 μM, 5,7 μM, 1,6 μM, 0.47 μM, 0.13 μM, 38 nM, 11 nM, 3.1 nM, 0.89 nM, 0.25 nM and 0.073 nM). IC50 values are calculated by 4-Parameter fitting using a commercial software package (Genedata Screener, Switzerland).

interaction of human SOS1 (SOS1) with human K-RasG12C, sequence (Q07889 564-1049 limits assumed): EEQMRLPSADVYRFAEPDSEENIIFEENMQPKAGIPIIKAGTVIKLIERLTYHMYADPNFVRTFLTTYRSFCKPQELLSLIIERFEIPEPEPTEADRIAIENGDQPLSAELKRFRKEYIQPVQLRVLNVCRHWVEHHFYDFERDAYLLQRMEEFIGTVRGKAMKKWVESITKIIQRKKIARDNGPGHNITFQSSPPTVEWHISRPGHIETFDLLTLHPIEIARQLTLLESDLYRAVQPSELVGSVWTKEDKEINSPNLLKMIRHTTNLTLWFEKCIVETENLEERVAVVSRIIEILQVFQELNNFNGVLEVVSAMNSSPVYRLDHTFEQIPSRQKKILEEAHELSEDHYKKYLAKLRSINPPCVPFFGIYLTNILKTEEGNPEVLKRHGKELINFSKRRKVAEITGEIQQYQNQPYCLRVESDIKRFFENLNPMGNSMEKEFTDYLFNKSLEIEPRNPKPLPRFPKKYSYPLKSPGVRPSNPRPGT

| IC50 [µM] | Structure (SMILES) |
| --- | --- |
| 0.0529 | Cc1nc(N[C@H](C)c2cccc(C(F)(F)C(C)(C)O)c2F)c2cc(P(C)(C)=O)nc(C)c2n1 [Example 11, 1-{3-[(1R)-1-{[6-(dimethylphosphoryl)-2,8-dimethylpyrido[3,4-d]pyrimidin-4-yl]amino}ethyl]-2-fluorophenyl}-1,1-difluoro-2-methylpropan-2-ol] |
| 0.0594 | Cc1nc(N[C@H](C)c2cccc(C(F)(F)C(C)(C)O)c2F)c2cc(P(=O)(C(C)C)C(C)C)ncc2n1 [Example 12, 1-{3-[(1R)-1-({6-[di(propan-2-yl)phosphoryl]-2-methylpyrido[3,4-d]pyrimidin-4-yl}amino)ethyl]-2-fluorophenyl}-1,1-difluoro-2-methylpropan-2-ol] |
| 0.0163 | Cc1nc(N[C@H](C)c2cccc(C(F)(F)F)c2C)c2cc(P(C)(C)=O)cnc2n1 [Example 13, 6-(dimethylphosphoryl)-2-methyl-N-{(1R)-1-[2-methyl-3-(trifluoromethyl)phenyl]ethyl}pyrido[2,3-d]pyrimidin-4-amine] |
| 0.00978 | Cc1nc(N[C@H](C)c2cccc(C(F)(F)C(C)(C)O)c2F)c2cc(P(C)(C)=O)cnc2n1 [Example 14, 1-{3-[(1R)-1-{[6-(dimethylphosphoryl)-2-methylpyrido[2,3-d]pyrimidin-4-yl]amino}ethyl]-2-fluorophenyl}-1,1-difluoro-2-methylpropan-2-ol] |
| 0.0471 | Cc1nc(N[C@H](C)c2cccc(C(F)(F)C(C)(C)O)c2F)c2cc(P(=O)(C(C)C)C(C)C)cnc2n1 [Example 15, 1-{3-[(1R)-1-({6-[di(propan-2-yl)phosphoryl]-2-methylpyrido[2,3-d]pyrimidin-4-yl}amino)ethyl]-2-fluorophenyl}-1,1-difluoro-2-methylpropan-2-ol] |
| 0.0106 | Cc1nc(N[C@H](C)c2cccc(C(F)(F)C(C)(C)O)c2F)c2cc(P3(=O)CCCC3)cnc2n1 [Example 16, 1-[4-({(1R)-1-[3-(1,1-difluoro-2-hydroxy-2-methylpropyl)-2-fluorophenyl]ethyl}amino)-2-methylpyrido[2,3-d]pyrimidin-6-yl]-1lambda^5-phospholan-1-one] |
| 0.0143 | Cc1nc(N[C@H](C)c2cccc(C(F)(F)C(C)(C)O)c2F)c2cc(P(C)(C)=O)c(C)nc2n1 [Example 19, 1-{3-[(1R)-1-{[6-(dimethylphosphoryl)-2,7-dimethylpyrido[2,3-d]pyrimidin-4-yl]amino}ethyl]-2-fluorophenyl}-1,1-difluoro-2-methylpropan-2-ol] |
| 0.00721 | Cc1nc(N[C@H](C)c2cccc(C(F)(F)C(C)(C)O)c2F)c2cc(P3(=O)CCCC3)c(C)nc2n1 [Example 20, 1-[4-({(1R)-1-[3-(1,1-difluoro-2-hydroxy-2-methylpropyl)-2-fluorophenyl]ethyl}amino)-2,7-dimethylpyrido[2,3-d]pyrimidin-6-yl]-1lambda^5-phospholan-1-one] |
| 0.121 | Cc1nc(N[C@H](C)c2cccc(C(F)(F)C(C)(C)O)c2F)c2cc(P(=O)(C(C)C)C(C)C)c(C)nc2n1 [Example 21, 1-{3-[(1R)-1-({6-[di(propan-2-yl)phosphoryl]-2,7-dimethylpyrido[2,3-d]pyrimidin-4-yl}amino)ethyl]-2-fluorophenyl}-1,1-difluoro-2-methylpropan-2-ol] |
| 0.00918 | Cc1nc(N[C@H](C)c2cccc(C(F)(F)C(C)(C)O)c2F)c2cc(P(C)(C)=O)nc(O)c2n1 [Example 26, 4-({(1R)-1-[3-(1,1-difluoro-2-hydroxy-2-methylpropyl)-2-fluorophenyl]ethyl}amino)-6-(dimethylphosphoryl)-2-methylpyrido[3,4-d]pyrimidin-8-ol] |
| 0.00706 | Cc1nc(N[C@H](C)c2cccc(C(F)(F)CO)c2F)c2cc(P(C)(C)=O)ccc2n1 [Example 33, 2-{3-[(1R)-1-{[6-(dimethylphosphoryl)-2-methylquinazolin-4-yl]amino}ethyl]-2-fluorophenyl}-2,2-difluoroethan-1-ol] |

The remaining lines, values behind:

| Structure (SMILES) | IC50 [µM] |
| --- | --- |
| CC(=O)N1CCP(=O)(c2cc3c(N[C@H](C)c4cccc(C(F)F)c4F)nc(C)nc3cn2)CC1 [Example 10, 1-acetyl-4-[4-({(1R)-1-[3-(difluoromethyl)-2-fluorophenyl]ethyl}amino)-2-methylpyrido[3,4-d]pyrimidin-6-yl]-1,4lambda^5-azaphosphinan-4-one] | 0.0078 |
| Cc1nc(N[C@H](C)c2cccc(C(F)(F)F)c2C)c2cc(P(C)(C)=O)c(C)nc2n1 [Example 17, 6-(dimethylphosphoryl)-2,7-dimethyl-N-{(1R)-1-[2-methyl-3-(trifluoromethyl)phenyl]ethyl}pyrido[2,3-d]pyrimidin-4-amine] | 0.0106 |
| Cc1nc(N[C@H](C)c2cccc(C(F)F)c2F)c2cc(P(C)(C)=O)c(C)nc2n1 [Example 18, N-{(1R)-1-[3-(difluoromethyl)-2-fluorophenyl]ethyl}-6-(dimethylphosphoryl)-2,7-dimethylpyrido[2,3-d]pyrimidin-4-amine] | 0.0277 |
| Cc1nc(N[C@H](C)c2cccc(C(F)(F)F)c2C)c2cc(P(C)(C)=O)c(C(F)(F)F)nc2n1 [Example 22, 6-(dimethylphosphoryl)-2-methyl-N-{(1R)-1-[2-methyl-3-(trifluoromethyl)phenyl]ethyl}-7-(trifluoromethyl)pyrido[2,3-d]pyrimidin-4-amine] | 0.0187 |
| CC(=O)N1CCP(=O)(c2cc3c(N[C@H](C)c4cccc(C(F)(F)F)c4C)nc(C)nc3c(O)n2)CC1 [Example 30, 1-acetyl-4-[8-hydroxy-2-methyl-4-({(1R)-1-[2-methyl-3-(trifluoromethyl)phenyl]ethyl}amino)pyrido[3,4-d]pyrimidin-6-yl]-1,4lambda^5-azaphosphinan-4-one] | 1.36 |
| Cc1nc(N[C@H](C)c2cccc(C(F)(F)F)c2C)c2cc(P3(=O)CCN(C=O)CC3)ncc2n1 [Example 31, 4-[2-methyl-4-({(1R)-1-[2-methyl-3-(trifluoromethyl)phenyl]ethyl}amino)pyrido[3,4-d]pyrimidin-6-yl]-4-oxo-1,4lambda^5-azaphosphinane-1-carbaldehyde] | 0.00637 |
| CC(=S)N1CCP(=O)(c2cc3c(N[C@H](C)c4cccc(C(F)(F)F)c4C)nc(C)nc3cn2)CC1 [Example 32, 1-ethanethioyl-4-[2-methyl-4-({(1R)-1-[2-methyl-3-(trifluoromethyl)phenyl]ethyl}amino)pyrido[3,4-d]pyrimidin-6-yl]-1,4lambda^5-azaphosphinan-4-one] | 0.0122 |
| CC(=O)N1CCP(=O)(c2cc3c(N[C@H](C)c4cccc(C(F)(F)F)c4C)nc(C)nc3c(CO)n2)CC1 [Example 34, 1-acetyl-4-[8-(hydroxymethyl)-2-methyl-4-({(1R)-1-[2-methyl-3-(trifluoromethyl)phenyl]ethyl}amino)pyrido[3,4-d]pyrimidin-6-yl]-1,4lambda^5-azaphosphinan-4-one] | 0.0728 |
| CC(=O)N1CCP(=O)(c2cc3c(N[C@H](C)c4cccc(C(F)(F)F)c4C)nc(C)nc3c(C3CC3)n2)CC1 [Example 35, 1-acetyl-4-[8-cyclopropyl-2-methyl-4-({(1R)-1-[2-methyl-3-(trifluoromethyl)phenyl]ethyl}amino)pyrido[3,4-d]pyrimidin-6-yl]-1,4lambda^5-azaphosphinan-4-one] | 0.0215 |
| CC(=O)N1CCP(=O)(c2cc3c(N[C@H](C)c4cccc(C(F)(F)F)c4C)nc(C)nc3c(C(F)F)n2)CC1 [Example 36, 1-acetyl-4-[8-(difluoromethyl)-2-methyl-4-({(1R)-1-[2-methyl-3-(trifluoromethyl)phenyl]ethyl}amino)pyrido[3,4-d]pyrimidin-6-yl]-1,4lambda^5-azaphosphinan-4-one] | 0.0167 |
| COCc1nc(P2(=O)CCN(C(C)=O)CC2)cc2c(N[C@H](C)c3cccc(C(F)(F)F)c3C)nc(C)nc12 [Example 37, 1-acetyl-4-[8-(methoxymethyl)-2-methyl-4-({(1R)-1-[2-methyl-3-(trifluoromethyl)phenyl]ethyl}amino)pyrido[3,4-d]pyrimidin-6-yl]-1,4lambda^5-azaphosphinan-4-one] | 0.00969 |
